According to paper PMC6219668 (Oncotarget, 2018):

Test system: panel of nearly 500 cancer cell lines
Experiment: Cancer Cell Line Encyclopedia profiling, 3-day CellTiter-Glo
Format: cell-based
Design: Amax: unit not given here

## CN(C)C(=O)c1cc2cnc(Nc3ccc(N4CCNCC4)cn3)nc2n1C1CCCC1 [Ribociclib, 7-cyclopentyl-2-(5-piperazin-1-yl-pyridin-2-ylamino)-7H-pyrrolo[2,3-d]pyrimidine-6-carboxylic acid dimethylamide]
Homo sapiens, TCC-SUP
  EC50: > 8 µM
  IC50: > 8 µM
Homo sapiens, TE-11
  EC50: 2.09 µM
  IC50: > 8 µM
Homo sapiens, TE-15
  EC50: 1.23 µM
  IC50: > 8 µM
Homo sapiens, TOV21G
  EC50: 1.23 µM
  IC50: > 8 µM
Homo sapiens, TOV112D
  EC50: 0.995 µM
  IC50: > 8 µM
Homo sapiens, Toledo
  EC50: 1.52 µM
  IC50: > 8 µM
Homo sapiens, U2OS
  EC50: 2.09 µM
  IC50: > 8 µM
Homo sapiens, U-87 MG
  EC50: > 8 µM
  IC50: > 8 µM
Homo sapiens, U-118-MG
  EC50: 2.68 µM
  IC50: > 8 µM
Homo sapiens, U-937
  EC50: 1.74 µM
  IC50: 3.52 µM
Homo sapiens, UACC-62
  EC50: 1.62 µM
  IC50: > 8 µM
Homo sapiens, UACC-257
  EC50: 0.577 µM
  IC50: > 8 µM
Homo sapiens, UACC-812
  EC50: > 8 µM
  IC50: > 8 µM
Homo sapiens, UMUC3
  EC50: > 8 µM
  IC50: > 8 µM
Homo sapiens, WM 266-4
  EC50: 0.946 µM
  IC50: > 8 µM
Homo sapiens, WM793
  EC50: > 8 µM
  IC50: > 8 µM
Homo sapiens, WM-115
  EC50: > 8 µM
  IC50: > 8 µM
Homo sapiens, YKG-1
  EC50: > 8 µM
  IC50: > 8 µM
Homo sapiens, ZR-75-1
  EC50: > 8 µM
  IC50: > 8 µM
Homo sapiens, ZR-75-30
  EC50: > 8 µM
  IC50: > 8 µM
Hs766T
  EC50: > 8 µM
  IC50: > 8 µM
IGR-39
  EC50: > 8 µM
  IC50: > 8 µM
JHH7
  EC50: 1.83 µM
  IC50: > 8 µM
JHH-2
  EC50: 7.93 µM
  IC50: > 8 µM
JHH-4
  EC50: 2.24 µM
  IC50: > 8 µM
JMSU-1
  EC50: > 8 µM
  IC50: > 8 µM
KE-97
  EC50: 3.81 µM
  IC50: 4.53 µM
KHM-1B
  EC50: 0.34 µM
  IC50: > 8 µM
KMM-1
  IC50: 4.23 µM
KMRC-1
  EC50: 0.907 µM
  IC50: > 8 µM
KMS-26
  EC50: 3.37 µM
  IC50: 2.53 µM
Karpas-620
  EC50: 0.0773 µM
  IC50: > 8 µM
Kelly
  EC50: 6.64 µM
  IC50: 6.64 µM
LOU-NH91
  EC50: > 8 µM
  IC50: > 8 µM
LUDLU-1
  EC50: 0.0154 µM
  IC50: > 8 µM
Mono-Mac-1
  EC50: 0.704 µM
  IC50: 3.22 µM
NCI-H322
  EC50: > 8 µM
  IC50: > 8 µM
NCI-H1339
  EC50: > 8 µM
  IC50: > 8 µM
NCI-H1568
  EC50: > 8 µM
  IC50: > 8 µM
NCI-H1915
  EC50: > 8 µM
  IC50: > 8 µM
NCI-H2023
  EC50: 0.0698 µM
  IC50: > 8 µM
NCI-H2172
  EC50: > 8 µM
  IC50: > 8 µM
OCUM1
  EC50: > 8 µM
  IC50: > 8 µM
OE21
  EC50: > 8 µM
  IC50: 4.52 µM
ONCO-DG-1
  EC50: > 8 µM
  IC50: > 8 µM
PK-59
  EC50: > 8 µM
  IC50: > 8 µM
PL45
  EC50: 0.0975 µM
  IC50: > 8 µM
PaTu 8902
  EC50: > 8 µM
  IC50: > 8 µM
QGP-1
  EC50: 0.309 µM
  IC50: 2.33 µM
SH-10-TC
  EC50: > 8 µM
  IC50: > 8 µM
SUIT-2
  EC50: 1.62 µM
  IC50: 7.97 µM
SW579
  EC50: 0.929 µM
  IC50: > 8 µM
SW1271
  EC50: 2.54 µM
  IC50: > 8 µM
TC-71
  EC50: > 8 µM
  IC50: > 8 µM
WM983B
  EC50: 0.114 µM
  IC50: 0.327 µM
WM-1799
  EC50: 0.202 µM
  IC50: > 8 µM
a172 (central_nervous_system)
  Amax: -18.6367
a204 (soft_tissue)
  Amax: -24.3309
a253 (salivary_gland)
  Amax: 9.763
a2058 (skin)
  Amax: 0.435
g402 (soft_tissue)
  Amax: -59.1579
Gamg (central_nervous_system)
  Amax: -4.349
gb1 (central_nervous_system)
  Amax: -5.547
Gciy (stomach)
  Amax: -6.8217
Gct (soft_tissue)
  Amax: -35.032
gi1 (central_nervous_system)
  Amax: 1.537
glc82 (lung)
  Amax: 6.841
gms10 (central_nervous_system)
  Amax: 6.4331
granta519 (haematopoietic_and_lymphoid_tissue)
  Amax: -7.882
h4 (central_nervous_system)
  Amax: -7.315
Hara (lung)
  Amax: -39.5316
hcc15 (lung)
  Amax: 11.5352
hcc44 (lung)
  Amax: -21.2383
hcc56 (large_intestine)
  Amax: -7.243
hcc70 (breast)
  Amax: 9.331
hcc78 (lung)
  Amax: 8.5798
hcc827 (lung)
  Amax: 5.053
hcc1187 (breast)
  Amax: -1.8256
hcc1395 (breast)
  Amax: 4.555
hcc1569 (breast)
  Amax: -4.171
hcc1806 (breast)
  Amax: -2.407
hcc1954 (breast)
  Amax: 5.4786
hcc2935 (lung)
  Amax: 3.035
hcc4006 (lung)
  Amax: -45.676
hct15 (large_intestine)
  Amax: -18.4329
hct116 (large_intestine)
  Amax: -41.8056
Hdmyz (haematopoietic_and_lymphoid_tissue)
  Amax: -70.2074
hdqp1 (breast)
  Amax: -11.6831
hec1a (endometrium)
  Amax: -0.2935
hec1b (endometrium)
  Amax: -44.265
hec6 (endometrium)
  Amax: 9.745
hec59 (endometrium)
  Amax: -17.0499
hec151 (endometrium)
  Amax: 0.04545
hec251 (endometrium)
  Amax: 3.202
hec265 (endometrium)
  Amax: 6.223
hel9217 (haematopoietic_and_lymphoid_tissue)
  Amax: 0.4869
hep3b217 (liver)
  Amax: 2.738
hepg2 (liver)
  Amax: -37.2895
heya8 (ovary)
  Amax: -44.7632
hgc27 (stomach)
  Amax: -65.8757
Hh (haematopoietic_and_lymphoid_tissue)
  Amax: -3.613
Hle (liver)
  Amax: -18.5726
Hlf (liver)
  Amax: 6.292
hmc18 (breast)
  Amax: -31.7315
Hmcb (skin)
  Amax: -41.1129
Hos (bone)
  Amax: -0.8851
Hpac (pancreas)
  Amax: -55.1912
Hpafii (pancreas)
  Amax: -3.9084
hs229t (lung)
  Amax: -28.1577
hs294t (skin)
  Amax: -32.1941
hs578t (breast)
  Amax: -21.2687
hs695t (skin)
  Amax: -3.506
hs729 (soft_tissue)
  Amax: 10.8537
hs739t (breast)
  Amax: -26.62
hs746t (stomach)
  Amax: -37.6649
hs766t (pancreas)
  Amax: -32.0513
hs840t (upper_aerodigestive_tract)
  Amax: -29.2379
hs852t (skin)
  Amax: -6.059
hs936t (skin)
  Amax: -38.0651
hs939t (skin)
  Amax: -14.4612
hsc2 (upper_aerodigestive_tract)
  Amax: 0.4805
ht29 (large_intestine)
  Amax: -56.1634
ht144 (skin)
  Amax: -18.5925
ht1080 (soft_tissue)
  Amax: -36.8044
ht1197 (urinary_tract)
  Amax: -10.59
ht1376 (urinary_tract)
  Amax: 7.547
Ht (haematopoietic_and_lymphoid_tissue)
  Amax: 8.223
hucct1 (biliary_tract)
  Amax: 1.7282
huh1 (liver)
  Amax: -43.6531
hupt3 (pancreas)
  Amax: -32.6303
hupt4 (pancreas)
  Amax: -52.4819
hut78 (haematopoietic_and_lymphoid_tissue)
  Amax: 8.299
Ialm (lung)
  Amax: 0.7254
igr37 (skin)
  Amax: -22.1572
igr39 (skin)
  Amax: 0.9211
igrov1 (ovary)
  Amax: -1.9772
im95 (stomach)
  Amax: -0.7889
imr32 (autonomic_ganglia)
  Amax: -55.0108
ipc298 (skin)
  Amax: -16.0715
ishikawaheraklio02er (endometrium)
  Amax: 0.9691
istmes1 (pleura)
  Amax: -35.2757
istmes2 (pleura)
  Amax: -42.1214
j82 (urinary_tract)
  Amax: -0.8954
jhh2 (liver)
  Amax: -16.2272
jhh4 (liver)
  Amax: -26.3135
jhh5 (liver)
  Amax: -74.5916
jhh6 (liver)
  Amax: 4.949
jhh7 (liver)
  Amax: -42.8596
jhos2 (ovary)
  Amax: 12.8505
jhos4 (ovary)
  Amax: 4.354
jhuem2 (endometrium)
  Amax: -27.6126
